In US9771369B2, “Compounds and methods for kinase modulation, and indications therefor” (Plexxikon Inc., priority 2014, dated 2017):

target: c-Kit kinase (Homo sapiens (Human), UniProt P10721); test: c-Kit biochemical assay (AlphaScreen kinase activity)
Procedure, shortened: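 IC50 values come from 8-point, 1:3 compound titrations measuring inhibition of peptide phosphorylation by c-Kit (commercial or His-tagged E. coli-expressed) over 1 h at room temperature, read by AlphaScreen PY30/streptavidin beads. Low-ATP version: 10 μM ATP, 100 nM biotin-(E4Y)3; high-ATP version: 100 μM ATP, 30 nM biotin-(E4Y)10.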

c-Kit kinase, sequence (P10721 26-976): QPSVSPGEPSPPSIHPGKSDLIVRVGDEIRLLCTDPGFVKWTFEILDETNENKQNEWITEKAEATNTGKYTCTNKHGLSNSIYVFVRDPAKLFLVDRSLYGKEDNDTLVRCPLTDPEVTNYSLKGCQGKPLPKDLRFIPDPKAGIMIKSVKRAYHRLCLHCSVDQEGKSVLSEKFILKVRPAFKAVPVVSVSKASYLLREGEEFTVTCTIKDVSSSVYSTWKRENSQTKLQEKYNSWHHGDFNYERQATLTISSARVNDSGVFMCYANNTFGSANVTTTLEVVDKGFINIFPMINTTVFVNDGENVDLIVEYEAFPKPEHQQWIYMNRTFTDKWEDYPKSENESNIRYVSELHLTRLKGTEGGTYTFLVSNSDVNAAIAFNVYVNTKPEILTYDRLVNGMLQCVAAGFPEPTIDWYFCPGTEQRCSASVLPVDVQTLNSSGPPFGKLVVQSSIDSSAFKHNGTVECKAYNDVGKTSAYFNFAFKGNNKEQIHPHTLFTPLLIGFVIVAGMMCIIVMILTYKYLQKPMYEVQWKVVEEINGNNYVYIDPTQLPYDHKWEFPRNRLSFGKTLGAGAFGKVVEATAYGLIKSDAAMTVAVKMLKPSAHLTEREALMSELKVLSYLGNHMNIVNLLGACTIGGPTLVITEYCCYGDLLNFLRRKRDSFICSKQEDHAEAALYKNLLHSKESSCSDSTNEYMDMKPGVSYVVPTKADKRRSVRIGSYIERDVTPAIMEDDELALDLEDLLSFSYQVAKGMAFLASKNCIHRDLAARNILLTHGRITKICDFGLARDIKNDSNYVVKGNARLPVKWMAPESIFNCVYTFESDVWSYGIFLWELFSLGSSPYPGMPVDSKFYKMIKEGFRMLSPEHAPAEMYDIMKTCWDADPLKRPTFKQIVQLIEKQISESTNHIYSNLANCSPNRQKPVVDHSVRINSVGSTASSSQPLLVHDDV

Row | SMILES | IC50
1 | Cc1nc(C2CCN(c3ncnc4[nH]c(-c5ccc(C(N)=O)cc5)cc34)CC2)[nH]c1-c1ccccc1 [P-3044, 4-[4-[4-(4-methyl-5-phenyl-1H-imidazol-2-yl)-1-piperidyl]-7H-pyrrolo[2,3-d]pyrimidin-6-yl]benzamide] | 0.0001 to 1 µM
2 | Cc1nc(C2CCN(c3ncnc4[nH]c(-c5ccnc(N6CCC(C)CC6)c5)cc34)CC2)[nH]c1-c1ccccc1 [P-3077, 4-[4-(4-methyl-5-phenyl-1H-imidazol-2-yl)-1-piperidyl]-6-[2-(4-methyl-1-piperidyl)-4-pyridyl]-7H-pyrrolo[2,3-d]pyrimidine] | 0.0001 to 1 µM
3 | CCOc1cccc(-c2[nH]c(C3CCN(c4ncnc5[nH]c(-c6ccc(F)cc6)cc45)CC3)nc2C)c1 [P-3024, 4-[4-[5-(3-ethoxyphenyl)-4-methyl-1H-imidazol-2-yl]-1-piperidyl]-6-(4-fluorophenyl)-7H-pyrrolo[2,3-d]pyrimidine] | 1 to 10 µM
4 | Cc1nc(C2CCN(c3ncnc4[nH]c(-c5cccc(F)c5)cc34)CC2)[nH]c1-c1ccccc1 [P-3081, 6-(3-fluorophenyl)-4-[4-(4-methyl-5-phenyl-1H-imidazol-2-yl)-1-piperidyl]-7H-pyrrolo[2,3-d]pyrimidine] | 0.0001 to 1 µM
5 | Cc1nc(C2CCN(c3ncnc4[nH]c(-c5ccnc(N6CCOCC6)c5)cc34)CC2)[nH]c1-c1ccccc1 [P-3076, 4-[4-[4-[4-(4-methyl-5-phenyl-1H-imidazol-2-yl)-1-piperidyl]-7H-pyrrolo[2,3-d]pyrimidin-6-yl]-2-pyridyl]morpholine] | 0.0001 to 1 µM
6 | COc1cc(-c2cc3c(N4CCC(c5nc(C)c(-c6ccc7c(c6)OCO7)[nH]5)CC4)ncnc3[nH]2)ccn1 [P-3070, 4-[4-[5-(1,3-benzodioxol-5-yl)-4-methyl-1H-imidazol-2-yl]-1-piperidyl]-6-(2-methoxy-4-pyridyl)-7H-pyrrolo[2,3-d]pyrimidine] | 0.0001 to 1 µM
7 | Cc1nc(C2CCN(c3ncnc4[nH]c(-c5cccc(NS(C)(=O)=O)c5)cc34)CC2)[nH]c1-c1ccccc1 [P-3083, N-[3-[4-[4-(4-methyl-5-phenyl-1H-imidazol-2-yl)-1-piperidyl]-7H-pyrrolo[2,3-d]pyrimidin-6-yl]phenyl]methane sulfonamide] | 0.0001 to 1 µM
8 | Cc1nc(C2CCN(c3ncnc4[nH]c(-c5ccnc(N6CCCC6)c5)cc34)CC2)[nH]c1-c1ccccc1 [P-3079, 4-[4-(4-methyl-5-phenyl-1H-imidazol-2-yl)-1-piperidyl]-6-(2-pyrrolidin-1-yl-4-pyridyl)-7H-pyrrolo[2,3-d]pyrimidine] | 0.0001 to 1 µM
9 | Cc1nc(C2CCN(c3ncnc4[nH]c(-c5cccc(S(N)(=O)=O)c5)cc34)CC2)[nH]c1-c1ccccc1 [P-3051, 3-[4-[4-(4-methyl-5-phenyl-1H-imidazol-2-yl)-1-piperidyl]-7H-pyrrolo[2,3-d]pyrimidin-6-yl]benzenesulfonamide] | 0.0001 to 1 µM
10 | Cc1nc(C2(C)CCN(c3ncnc4[nH]c(-c5ccc(C(N)=O)cc5)cc34)CC2)[nH]c1-c1ccc(OC(F)F)cc1 [P-3253, 4-[4-[4-[5-[4-(difluoromethoxy)phenyl]-4-methyl-1H-imidazol-2-yl]-4-methyl-1-piperidyl]-7H-pyrrolo[2,3-d]pyrimidin-6-yl]benzamide] | 0.0001 to 1 µM
11 | Cc1nc(C2CCN(c3ncnc4[nH]c(-c5ccc(C#N)cc5)cc34)CC2)[nH]c1-c1ccc(Cl)cc1 [P-3038, 4-[4-[4-[5-(4-chlorophenyl)-4-methyl-1H-imidazol-2-yl]-1-piperidyl]-7H-pyrrolo[2,3-d]pyrimidin-6-yl]benzonitrile] | 0.0001 to 1 µM
12 | COc1ccc(-c2[nH]c(C3CCN(c4ncnc5[nH]c(-c6ccc(C#N)cc6)cc45)CC3)nc2C)cc1OC [P-3039, 4-[4-[4-[5-(3,4-dimethoxyphenyl)-4-methyl-1H-imidazol-2-yl]-1-piperidyl]-7H-pyrrolo[2,3-d]pyrimidin-6-yl]benzonitrile] | 1 to 10 µM
13 | COc1ccc(-c2[nH]c(C3(C)CCN(c4ncnc5[nH]c(-c6ccc(C#N)cc6)cc45)CC3)nc2C)cc1 [P-3043, 4-[4-[4-[5-(4-methoxyphenyl)-4-methyl-1H-imidazol-2-yl]-4-methyl-1-piperidyl]-7H-pyrrolo[2,3-d]pyrimidin-6-yl]benzonitrile] | 0.0001 to 1 µM
14 | CCOc1ccc(-c2[nH]c(C3CCN(c4ncnc5[nH]c(-c6ccnc(OC)c6)cc45)CC3)nc2C)cc1 [P-3031, 4-[4-[5-(4-ethoxyphenyl)-4-methyl-1H-imidazol-2-yl]-1-piperidyl]-6-(2-methoxy-4-pyridyl)-7H-pyrrolo[2,3-d]pyrimidine] | 1 to 10 µM
15 | COc1ccc(-c2[nH]c(C3(C)CCN(c4ncnc5[nH]c(-c6ccc(F)cc6)cc45)CC3)nc2C)cc1C [P-3052, 6-(4-fluorophenyl)-4-[4-[5-(4-methoxy-3-methyl-phenyl)-4-methyl-1H-imidazol-2-yl]-4-methyl-1-piperidyl]-7H-pyrrolo[2,3-d]pyrimidine] | 0.0001 to 1 µM
16 | Cc1nc(C2CCN(c3ncnc4[nH]c(-c5ccc(F)cc5)cc34)CC2)[nH]c1-c1ccc2c(c1)OCCO2 [P-3084, 4-[4-[5-(2,3-dihydro-1,4-benzodioxin-6-yl)-4-methyl-1H-imidazol-2-yl]-1-piperidyl]-6-(4-fluorophenyl)-7H-pyrrolo[2,3-d]pyrimidine] | 0.0001 to 1 µM
17 | Cc1nc(C2CCN(c3ncnc4[nH]c(-c5ccc(F)cc5)cc34)CC2)[nH]c1-c1ccc2c(c1)OCO2 [P-3068, 4-[4-[5-(1,3-benzodioxol-5-yl)-4-methyl-1H-imidazol-2-yl]-1-piperidyl]-6-(4-fluorophenyl)-7H-pyrrolo[2,3-d]pyrimidine] | 0.0001 to 1 µM
18 | COc1ncc(-c2cc3c(N4CCC(c5nc(C)c(-c6ccccc6)[nH]5)CC4)ncnc3[nH]2)cn1 [P-3045, 6-(2-methoxypyrimidin-5-yl)-4-[4-(4-methyl-5-phenyl-1H-imidazol-2-yl)-1-piperidyl]-7H-pyrrolo[2,3-d]pyrimidine] | 10 to 300 µM
19 | Cc1nc(C2CCN(c3ncnc4[nH]c(-c5cccc(OC(F)(F)F)c5)cc34)CC2)[nH]c1-c1ccccc1 [P-3080, 4-[4-(4-methyl-5-phenyl-1H-imidazol-2-yl)-1-piperidyl]-6-[3-(trifluoromethoxy)phenyl]-7H-pyrrolo[2,3-d]pyrimidine] | 1 to 10 µM
20 | Cc1nc(C2CCN(c3ncnc4[nH]c(-c5ccc(C#N)cc5)cc34)CC2)[nH]c1-c1ccc(OC(F)(F)F)cc1 [P-3086, 4-[4-[4-[4-methyl-5-[4-(trifluoromethoxy)phenyl]-1H-imidazol-2-yl]-1-piperidyl]-7H-pyrrolo[2,3-d]pyrimidin-6-yl]benzonitrile] | 1 to 10 µM
21 | COc1cc(-c2cc3c(N4CCC(c5nc(C)c(-c6ccc(OC)c(OC)c6)[nH]5)CC4)ncnc3[nH]2)ccn1 [P-3042, 4-[4-[5-(3,4-dimethoxyphenyl)-4-methyl-1H-imidazol-2-yl]-1-piperidyl]-6-(2-methoxy-4-pyridyl)-7H-pyrrolo[2,3-d]pyrimidine] | 1 to 10 µM
22 | COc1ccc(-c2[nH]c(C3CCN(c4ncnc5[nH]c(-c6ccc(F)cc6)cc45)CC3)nc2C)cc1OC [P-3036, 4-[4-[5-(3,4-dimethoxyphenyl)-4-methyl-1H-imidazol-2-yl]-1-piperidyl]-6-(4-fluorophenyl)-7H-pyrrolo[2,3-d]pyrimidine] | 1 to 10 µM
23 | Cc1nc(C2CCN(c3ncnc4[nH]c(-c5ccc(C#N)cc5)cc34)CC2)[nH]c1-c1ccc2c(c1)OCO2 [P-3069, 4-[4-[4-[5-(1,3-benzodioxol-5-yl)-4-methyl-1H-imidazol-2-yl]-1-piperidyl]-7H-pyrrolo[2,3-d]pyrimidin-6-yl]benzonitrile] | 0.0001 to 1 µM
